Experimental data reported in patent US20240368150A1 (Hoffmann-La Roche Inc., priority 2021, published 2024).
Like-named read-outs stand apart in the source and are kept apart here.

Key:
hDGKalpha(1-735)-N-His = hDGKalpha(1-735)-N-His (Homo sapiens (Human), UniProt P23743); test: DGKalpha ADP Glo assay (in vitro DGK inhibition); type: biochemical; conditions: DLG 125 uM, ATP 25 μM, DGK α 4 nM, 1 hour reaction
Procedure: (§1) DGK α and ζ kinase use ATP to phosphorylate the substrate 1,2-dilauroyl-sn-glycerol (DLG, incorporated in the liposomes). ATP is converted to ADP as a result of this enzymatic reaction. After the kinase reaction, an ATP-depletion reagent is added to terminate the kinase reaction and deplete any remaining ATP, leaving only ADP. Second, a detection reagent is added to simultaneously convert ADP to ATP and allow the newly synthesized ATP to be converted to light using a coupled luciferase/luciferin reaction.
(§2) Purification of both enzymes was performed as previously described by Takahashi et al., PeerJ, 2018 (Takahashi, D.; Sakane, F. Expression and purification of human diacylglycerol kinase alpha from baculovirus-infected insect cells for structural studies. PeerJ 2018, 6, No. e5449).
(§3) A concentrated liposome solution was prepared in assay buffer without DTT and BSA: 2 mM of DLG in 21 mM of total liposome (2 mM DLG/8 mM PS/11 mM PC). […] The reactions were started by addition of DGK α and ζ kinases at 4 nM and 2 nM final concentrations, respectively. After 1 hour reaction, the amount of ADP formed was detected with the ADP-Glo kinase assay (Promega) according to the manufacturer instructions. Compounds were added in 11-points dose response, starting at […], 1:3 dilutions, with a final DMSO concentration of 2%. The multidrop combi was used as a liquid handler and luminescence was read with 0.5 s by the envision reader (PE).

hDGKzeta(1-928)-N-His = hDGKzeta(1-928)-N-His (Homo sapiens (Human), UniProt Q13574); test: DGKzeta ADP Glo assay (in vitro DGK inhibition); type: biochemical; conditions: DLG 125 uM, ATP 50 μM, DGK ζ 2 nM, 1 hour reaction
Procedure: as §1, §2, §3

primary human T-cells [1] = test: Proliferation assay after 5 days (CellTiter-Glo, CD3 stimulation; PBS counter screen); type: cell-based; conditions: CD3 stimulation; for Emax: read-out: Emax proliferation (% activation); for EC50: primary human T-cells, CellTiter-Glo after 5 days, EC50 of fitted sigmoidal curve, read-out: Tcell Proliferation CD3 EC50
How it was run: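 After compound addition to medium-only plates, cells are cultured 5 days, equilibrated to room temperature, mixed with an equal volume of CellTiter-Glo 2.0 and rocked 15 min before luminescence is read. Signal reflects ATP content, taken as proportional to cell number.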

primary human T-cells [2] = system: primary human T-cells
[3] = Homo sapiens, T-cell, 120 h, 5 days, normalized to reference compound A1 as stimulator control = 100%, DMSO neutral control

Sequence of hDGKzeta(1-928)-N-His (Q13574 whole entry): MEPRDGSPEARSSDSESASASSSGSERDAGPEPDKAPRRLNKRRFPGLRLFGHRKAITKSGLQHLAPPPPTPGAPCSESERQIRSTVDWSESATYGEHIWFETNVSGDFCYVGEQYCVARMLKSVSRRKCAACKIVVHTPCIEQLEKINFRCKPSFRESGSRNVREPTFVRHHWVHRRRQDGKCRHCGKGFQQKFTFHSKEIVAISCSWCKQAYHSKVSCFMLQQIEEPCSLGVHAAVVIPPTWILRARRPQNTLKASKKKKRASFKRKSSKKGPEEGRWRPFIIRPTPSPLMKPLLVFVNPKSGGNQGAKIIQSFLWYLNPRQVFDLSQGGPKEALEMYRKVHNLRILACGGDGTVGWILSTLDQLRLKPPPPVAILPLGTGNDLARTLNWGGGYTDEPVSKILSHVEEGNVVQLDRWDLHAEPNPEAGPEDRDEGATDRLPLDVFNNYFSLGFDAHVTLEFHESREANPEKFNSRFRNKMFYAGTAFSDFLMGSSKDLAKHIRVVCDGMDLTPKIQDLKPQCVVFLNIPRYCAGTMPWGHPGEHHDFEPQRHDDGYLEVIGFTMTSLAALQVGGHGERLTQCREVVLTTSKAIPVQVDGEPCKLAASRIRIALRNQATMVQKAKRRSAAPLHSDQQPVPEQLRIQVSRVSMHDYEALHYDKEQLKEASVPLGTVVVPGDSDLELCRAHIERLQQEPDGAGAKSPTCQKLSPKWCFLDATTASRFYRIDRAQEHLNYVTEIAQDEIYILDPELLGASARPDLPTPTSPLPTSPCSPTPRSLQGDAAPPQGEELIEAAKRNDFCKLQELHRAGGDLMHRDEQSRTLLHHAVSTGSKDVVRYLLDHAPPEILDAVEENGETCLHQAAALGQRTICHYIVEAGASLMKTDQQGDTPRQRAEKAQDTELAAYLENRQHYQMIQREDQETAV
Sequence of hDGKalpha(1-735)-N-His (P23743 whole entry): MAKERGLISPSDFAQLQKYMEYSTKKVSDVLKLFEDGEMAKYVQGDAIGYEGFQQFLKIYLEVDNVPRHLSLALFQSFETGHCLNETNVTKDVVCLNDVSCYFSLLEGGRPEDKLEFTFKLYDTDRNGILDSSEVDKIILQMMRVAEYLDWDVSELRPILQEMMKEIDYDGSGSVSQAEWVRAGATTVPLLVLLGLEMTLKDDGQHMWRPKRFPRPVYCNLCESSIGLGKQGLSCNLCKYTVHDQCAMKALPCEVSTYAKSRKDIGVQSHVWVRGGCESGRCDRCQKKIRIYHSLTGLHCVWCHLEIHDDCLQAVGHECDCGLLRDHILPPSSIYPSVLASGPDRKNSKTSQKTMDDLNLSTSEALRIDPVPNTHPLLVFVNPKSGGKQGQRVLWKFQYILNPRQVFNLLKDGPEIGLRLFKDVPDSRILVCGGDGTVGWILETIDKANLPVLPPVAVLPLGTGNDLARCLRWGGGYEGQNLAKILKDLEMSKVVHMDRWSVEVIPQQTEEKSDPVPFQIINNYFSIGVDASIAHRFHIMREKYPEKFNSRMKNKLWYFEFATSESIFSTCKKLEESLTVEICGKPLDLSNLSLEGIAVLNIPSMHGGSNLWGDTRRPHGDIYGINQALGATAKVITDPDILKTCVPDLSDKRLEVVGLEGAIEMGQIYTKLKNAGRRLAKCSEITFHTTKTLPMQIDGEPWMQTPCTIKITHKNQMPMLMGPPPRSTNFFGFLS

| SMILES | IC50 (hDGKalpha(1-735)-N-His) [nM] | IC50 (hDGKzeta(1-928)-N-His) [nM] | Emax (primary human T-cells [1]; [3]) [%] | EC50 (primary human T-cells [1]; Homo sapiens, T-cell, 120 h) [nM] | EC50 (primary human T-cells [2]) [nM] | Emax proliferation (% activation) (primary human T-cells [1]; 5 days, normalized to reference compound A1 as stimulator control = 100%, DMSO neutral control) | EC50 (primary human T-cells [1]) [nM] |
| --- | --- | --- | --- | --- | --- | --- | --- |
| Cc1cc(S(C)(=O)=O)ccc1-c1nnc(-c2ccc3c(c2)N(Cc2ccc(Cl)cc2)C(=O)[C@@H](N)CS3(=O)=O)o1 [Example 379, (3R)-3-amino-5-[(4-chlorophenyl)methyl]-7-[5-(2-methyl-4-methylsulfonyl-phenyl)-1,3,4-oxadiazol-2-yl]-1,1-dioxo-2,3-dihydro-1λ^6,5-benzothiazepin-4-one] | 42700 | 1300 | 69 | 4850 | 2090 |  |  |
| CC(C)(C)c1nnc(-c2cc3c(cc2Cl)S(=O)(=O)C[C@H](N)C(=O)N3Cc2ccc(Cl)cc2)o1 [Example 523, (3R)-3-amino-7-(5-tert-butyl-1,3,4-oxadiazol-2-yl)-8-chloro-5-[(4-chlorophenyl)methyl]-1,1-dioxo-2,3-dihydro-1λ^6,5-benzothiazepin-4-one] | 1290 | 1510 | 45 | 462 | 5280 |  |  |
| Cc1cc(C)c(-c2nc(-c3cc4c(cc3F)S(=O)(=O)C[C@H](N)C(=O)N4Cc3ccc(Cl)cc3)no2)cn1 [Example 313, (3R)-3-amino-5-[(4-chlorophenyl)methyl]-7-[5-(4,6-dimethyl-3-pyridyl)-1,2,4-oxadiazol-3-yl]-8-fluoro-1,1-dioxo-2,3-dihydro-1λ^6,5-benzothiazepin-4-one] | 1660 | 130 | 191 | 375 | 1120 |  |  |
| N[C@H]1CS(=O)(=O)c2ccc(-c3nnc(N4[C@@H]5CC[C@H]4COC5)o3)cc2N(Cc2ccc(Cl)cc2)C1=O [Example 407, (3R)-3-amino-5-[(4-chlorophenyl)methyl]-7-[5-[(1R,5S)-3-oxa-8-azabicyclo[3.2.1]octan-8-yl]-1,3,4-oxadiazol-2-yl]-1,1-dioxo-2,3-dihydro-1λ^6,5-benzothiazepin-4-one] | 1420 | 2660 | 96 | 2810 | > 10000 |  |  |
| CC(C)Oc1ccc(CN2C(=O)[C@@H](N)CS(=O)(=O)c3cc(F)c(-c4noc(N5CCOC6(CC6)C5)n4)cc32)nc1 [Example 215] | 662 | 886 | 153 | 2170 | 5360 |  |  |
| CN1CCCC(F)(c2nc(-c3cc4c(cc3F)S(=O)(=O)C[C@H](N)C(=O)N4Cc3ccc(Oc4ccccc4)cc3)no2)C1 (stereo partly drawn) [Example 522, (3R)-3-amino-8-fluoro-7-[5-(3-fluoro-1-methyl-3-piperidyl)-1,2,4-oxadiazol-3-yl]-1,1-dioxo-5-[(4-phenoxyphenyl)methyl]-2,3-dihydro-1λ^6,5-benzothiazepin-4-one] | 4070 | 529 | 161 | 782 | 619 |  |  |
| N[C@H]1C[S+]([O-])c2cc(F)c(-c3noc(N4CCOC(C(F)(F)F)C4)n3)cc2N(Cc2ccc(Cl)cc2)C1=O (single isomer, unassigned; epimer b) [Example 212] | 975 | 46 |  |  | 2950 | 178 | 338 |
| N[C@H]1CS(=O)(=O)c2ccc(-c3nnc(C4CCCC(F)(F)C4)o3)cc2N(Cc2ccc(Cl)cc2)C1=O (stereo partly drawn) [Example 373, (3R)-3-amino-5-[(4-chlorophenyl)methyl]-7-[5-(3,3-difluorocyclohexyl)-1,3,4-oxadiazol-2-yl]-1,1-dioxo-2,3-dihydro-1λ^6,5-benzothiazepin-4-one] | 1400 | 644 | 100 | 556 | 1160 |  |  |
| CC(C)(C)c1nnc(-c2ccc3c(c2)N(Cc2ccc(OC(F)(F)C(F)F)cc2)C(=O)[C@@H](N)CS3(=O)=O)o1 [Example 442, (3R)-3-amino-7-(5-tert-butyl-1,3,4-oxadiazol-2-yl)-1,1-dioxo-5-[[4-(1,1,2,2-tetrafluoroethoxy)phenyl]methyl]-2,3-dihydro-1λ^6,5-benzothiazepin-4-one] | 1390 | 285 | 134 | 240 | 148 |  |  |
| CC(C)(C)c1nc(-c2cc3c(cc2F)S(=O)(=O)C[C@H](N)C(=O)N3Cc2ccc(F)cc2)no1 [Example 357, (3R)-3-amino-7-(5-tert-butyl-1,2,4-oxadiazol-3-yl)-8-fluoro-5-[(4-fluorophenyl)methyl]-1,1-dioxo-2,3-dihydro-1λ^6,5-benzothiazepin-4-one] | 403 | 114 | 386 | 1140 | 3000 |  |  |
| N[C@H]1CS(=O)(=O)c2cc(F)c(-c3noc(C(N)(c4ccc(F)cc4)C(F)(F)F)n3)cc2N(Cc2ccc(Cl)cc2)C1=O (stereo partly drawn) [Example 300, (3R)-3-amino-7-[5-[1-amino-2,2,2-trifluoro-1-(4-fluorophenyl)ethyl]-1,2,4-oxadiazol-3-yl]-5-[(4-chlorophenyl)methyl]-8-fluoro-1,1-dioxo-2,3-dihydro-1λ^6,5-benzothiazepin-4-one] | 3940 | 481 | 193 | 127 | 243 |  |  |
| COCCN1CCCC(F)(c2nnc(-c3ccc4c(c3)N(Cc3ccc(Cl)cc3)C(=O)[C@@H](N)CS4(=O)=O)o2)C1 (stereo partly drawn) [Example 386, (3R)-3-amino-5-[(4-chlorophenyl)methyl]-7-[5-[3-fluoro-1-(2-methoxyethyl)-3-piperidyl]-1,3,4-oxadiazol-2-yl]-1,1-dioxo-2,3-dihydro-1λ^6,5-benzothiazepin-4-one] | 3570 | 778 | 108 | 2270 | 4870 |  |  |
| COC(=O)N1CCC(c2nc(-c3cc4c(cc3F)S(=O)(=O)C[C@H](N)C(=O)N4Cc3ccc(OC4CCCC4)cc3)no2)C1 (stereo partly drawn) [Example 348, methyl 3-[3-[(3R)-3-amino-5-[[4-(cyclopentoxy)phenyl]methyl]-8-fluoro-1,1,4-trioxo-2,3-dihydro-1λ^6,5-benzothiazepin-7-yl]-1,2,4-oxadiazol-5-yl]pyrrolidine-1-carboxylate] | 2660 | 374 | 141 | 662 | 1710 |  |  |
| CC(C)(C)c1nnc(-c2ccc3c(c2)N(Cc2ccc(Oc4ccccc4)cc2)C(=O)[C@@H](N)CS3(=O)=O)o1 [Example 438, (3R)-3-amino-7-(5-tert-butyl-1,3,4-oxadiazol-2-yl)-1,1-dioxo-5-[(4-phenoxyphenyl)methyl]-2,3-dihydro-1λ^6,5-benzothiazepin-4-one] | 797 | 1340 | 78 | 246 | 700 |  |  |
| COC(F)(c1nc(-c2cc3c(cc2F)S(=O)(=O)C[C@H](N)C(=O)N3Cc2ccc(Cl)cc2)no1)C(F)(F)F (stereo partly drawn) [Example 292, (3R)-3-amino-5-[(4-chlorophenyl)methyl]-8-fluoro-1,1-dioxo-7-[5-(1,2,2,2-tetrafluoro-1-methoxy-ethyl)-1,2,4-oxadiazol-3-yl]-2,3-dihydro-1λ^6,5-benzothiazepin-4-one] | 528 | 494 | 179 | 31.9 | 126 |  |  |
